The results in this text go back to patent publication US20100105610A1, “Methods of Inhibiting Tumor Cell Aggressiveness Using the Microenvironment of Human Embryonic Stem Cells” (CHILDREN'S MEMORIAL HOSPITAL, priority 2006, published 2010).

What all share (format): cell-based, human
The test system of data set [1] is C8161 cells. Kind of data set: Membrane Invasion Culture System (MICS) invasion assay. To be noted: C8161 cells treated with ALK 4/5/7 inhibitor.
Excerpt: Bars represent the mean, normalized, invasion indices±standard deviations.
The aggressiveness of tumor cells is correlated with their ability to invade through the extracellular matrix; thus, the effect of hESC microenvironments on melanoma cell invasion was investigated.
The Membrane Invasion Culture System (MICS) chamber is used to evaluate the degree of tumor cell invasion through matrices in vitro (both stimulated and unstimulated) as described previously.
Data set [2] has as its system Nodal. Description: Nodal protein expression, Western blot. On the procedure: (§1) Protein lysates were prepared and quantified as previously described in Hess et al., 2001, Cancer Res. 61:3250-3255. Equal amounts of protein were separated by SDS-polyacrylamide gel electrophoresis under reducing conditions, and the resolved proteins were transferred onto Immobilon-P membranes (Millipore Corp., Bedford, Mass.). Membranes were blocked in 1% TBS, 0.1% Tween 20 (TBS-T) and 5% dry milk powder or 3% gelatin (for Nodal Westerns). Blots were incubated with anti-Nodal or anti-Lefty antibodies (Polyclonal rabbit anti-Nodal (H-110) 1:500 Santa Cruz Biotechnology, Santa Cruz, Calif.; Polyclonal goat anti-Lefty 1:500 R&D Systems, Minneapolis, Minn.), washed in TBS-T, and incubated with the appropriate horseradish peroxidase-labeled secondary antibody. Secondary antibodies were detected by enhanced chemiluminescence (Super Signal; Pierce, Rockford, Ill.) and exposure to autoradiography film (Molecular Technologies, St Louis, Mo.). Nodal protein was detected as two major bands at ˜48 and ˜35 kDa representing precursor and pro-Nodal respectively. Nodal often appeared as multiple bands, likely due to degradation of protein modifications. All experiments were done at least three times.
Conditioned matrices were prepared using hESCs, melanocytes, myoepithelial cells, amniotic fluid derived stem cells, or trophoblast cells on growth factor-reduced Matrigel (14 mg/mL; BD Biosciences) as previously described. Postovit et al., 2006, Stem Cells 24: 501-505. In all cases, cells were 80-100% confluent during the conditioning of the matrix. Alternatively, hESC-derived Lefty protein was seeded into Matrigel prior to polymerization. Human melanoma (C8161) or breast carcinoma (MDA-MB-231) cells, 2.5×10^5 cells/6-well dish, were subsequently exposed to this preconditioned matrix for 3 to 4 days.
as §1, with “primary antibody (Table 2),” for “anti-Nodal or anti-Lefty antibodies (Polyclonal rabbit anti-Nodal (H-110) 1:500 Santa Cruz Biotechnology, Santa Cruz, Calif.; Polyclonal goat anti-Lefty 1:500 R&D Systems, Minneapolis, Minn.),”, “TBS-T or TBS-T containing 0.5M NaCl for the Nodal Westerns,” for “TBS-T,”, “Nodal often appeared as multiple bands, likely due to degradation of protein modifications. All experiments were done at least three times.” left out
(A western blot detects proteins with antibodies after separation by electrophoresis.)

The subject of data set [3] is VE-Cadherin, Keratin 18. Kind of data set: Western blot of vasculogenic mimicry plasticity biomarkers in C8161 cells. To be noted: C8161 cells on 3-D collagen I matrices for 6 days. On the procedure:
(A) Western blot analyses of Nodal, phosphorylated SMAD-2, total SMAD 2/3, and Actin in C8161 cells 48 hours after administration of either vehicle or an ALK 4/5/7 inhibitor (SB431542, 1 μM, 10 μM). […] (B) Western blot analyses of Nodal, Tyrosinase and Actin in C8161 cells 24 hours after the administration of either vehicle or different concentrations of ALK inhibitor while (C) is a Western analyses for VE-Cadherin, Keratin 18 and Actin in C8161 cells cultured on 3-D collagen I matrices for 6 days in the presence of vehicle or different concentrations of ALK inhibitor.

Data set [4] relates to C8161 cells. Kind of data set: Vasculogenic mimicry of C8161 cells. To be noted: C8161 cells treated with ALK 4/5/7 inhibitor.
The test system of data set [5] is Notch 1, 2 and 4. Description: Notch expression, Western blot in C8161 cells. The source says:
Western blot analysis of C8161 cells 72 hrs following the administration of siRNA. […] Western blot analysis of Notch 1, 2 and 4 in C8161 cells treated with the Nodal inhibitor SB431542.

Data set [6] relates to Lefty. Description: Lefty knockdown in hESCs with FITC-tagged Morpholinos (microscopy, Western blot). The source says: Cancer cells were also exposed to Matrigel conditioned by hESCs in which Lefty protein expression was knocked down with FITC-tagged Morpholino oligonucleotides specific for Lefty-A and Lefty-B (MO^LEFTY). […] The expression of Oct-3/4 and Nanog, representative of hESC pluripotency, was not affected during this time, and the morphology of the hESC colonies was not altered.
Nodal, and Lefty protein expression were inhibited using anti-sense Morpholino oligonucleotides (Gene Tools Inc., Philomath, Oreg.). The Morpholino sequences were selected based on manufacturer's recommendations (21-25 mer antisense). Fluoroscein (FITC)-conjugated control (5′-[…]-3′) [SEQ ID NO: 19], Nodal (5′-[…]-3′) [SEQ ID NO: 20], Lefty-A (5′-[…]-3′) [SEQ ID NO: 21], and Lefty-B (5′[…]-3′) [SEQ ID NO: 22]. Morpholinos (20 μM) were delivered using the scrape method. Topczewska et al., 2006. Cancer cells were sorted for FITC and were recovered for 1 day prior to experimentation.

For data set [7], the system named is H9 hESCs. Description: hESC pluripotency (Oct-3/4 and Nanog expression, colony morphology). To be noted: Oct-3/4, Nanog. From the text: (A) An abundance of the Nodal inhibitor Lefty within the hESC conditioned matrices (CMTX). Lefty protein is absent in the C8161 cells within its own conditioned matrix (C8161+CMTX). (B) Immunofluorescence localization of FITC-conjugated anti Lefty Morpholinos (MO^LEFTY) in H9 hESC colonies on Matrigel. (C) Western blot analysis of Lefty protein in H9 hESCs treated with either vehicle (Control), MO^Control (MO Control), or MO^Lefty (MO Lefty). Actin is used as a loading control. (D) Real Time RT-PCR analysis of Oct-3/4 and Nanog expression in H9 hESCs treated with either vehicle (H9), MO^CONTROL (MO Control), or MO^LEFTY (MO Lefty). Gene levels were normalized using 18s and bars represent mean gene expression normalized to H9. (E) Real Time RT-PCR analysis of Nodal mRNA expression in C8161 cells cultured for 3 days on control (unconditioned) Matrigel, Matrigel conditioned by hESCs (H9 CMTX) or Matrigel conditioned by hESCs in which Lefty protein expression was […] with Lefty-specific Morpholinos (H9 CMTX MO Lefty). (F) Western blot analysis of Nodal protein in human metastatic melanoma (C8161) and breast carcinoma (MDA-MB-231) cells exposed for 3 days to either control (unconditioned) Matrigel or to Matrigel seeded with Lefty protein purified from hESCs (H9-derived Lefty). […]

The test system of data set [8] is C8161 cells. Description: Anchorage independent growth / soft agar colony formation, C8161. To be noted: 100 ng/mL. On the procedure: (§2) An in vitro colony forming assay was used to analyze colony-forming ability of poorly aggressive C81-61 cells, aggressive C8161 cells, C8161 cells treated with MONodal and C8161 cells treated with MONodal and rescued with recombinant Nodal (100 ng/mL). The assay was conducted using 50,000 cells suspended in 0.35% agarose in RPMI containing 10% serum, which were plated into 6-well dishes on 0.5% agar in the same medium. Colonies grew, and pictures were taken at day 7. After 2 weeks, colonies were stained with Crystal Violet and counted.
(§3) Clonogenicity of cells are assessed as previously described. Hamburger, A. W., and Salmon, S. E., 1977, Science 197:461-463. Each parameter is tested in triplicate for clone formation in soft agar. Briefly, […] are plated in 60 mm Petri dishes in complete medium placed over the soft agar. On specific days after the cells are plated, phase contrast images of the colonies are taken using a Zeiss Axiovert 25 with an Hitachi HCV-20 color camera.
(§4) Anchorage independent growth assays were conducted as previously described. Topczewska et al., 2006, Nat. Med. 12: 925-932.

For data set [9], the system named is MDA-MB-231 cells. Description: Anchorage independent growth / soft agar colony formation, MDA-MB-231. To be noted: 100 ng/mL. On the procedure:
as §3, §4

Data set [10] deals with C81-61 cells. Description: Soft agar colony formation, C81-61. To be noted: C81-61 cell line. On the procedure:
as §2, §3

As for `NC(=O)c1ccc(-c2nc(-c3ccc4c(c3)OCO4)c(-c3ccccn3)[nH]2)cc1` [SB431542], the invasive ability entry in [1] is “reduction”. Besides, the Nodal expression result in data set [2] (C8161 cells, 1 μM, 10 μM, 48 hours) is listed as “down-regulation”. Besides, the “expression of vasculogenic mimicry plasticity biomarkers” value in [3] was “reduction”. Besides, the vasculogenic mimicry entry in [4] was “abrogation”. Moreover, in data set [5], the Notch expression entry is recorded as “relatively unaffected”.

With “MO^LEFTY: FITC-tagged Morpholino oligonucleotides specific for Lefty-A and Lefty-B (SEQ ID NO: 21, 22) (chain 1 GCCACATGGTGCTGCCCTGGG; chain 2 CTGCATGGTGCTGCCCTGGAGGA; all phosphorodiamidate morpholino (PMO); FITC (fluorescein) conjugated, position not given here)”, the “Lefty protein expression in hESCs” value in data set [6] (H9 hESCs, Western blot, for up to 3 days) was “efficiently knocked down”. Besides, the “hESC colonies in which the fluorescently-tagged Morpholinos could be detected” value in data set [6] (microscopy of treated hESC colonies) was “over 75%”. In data set [7], the stem cell differentiation entry is reported as “did not induce stem cell differentiation”.

B1: rLefty: recombinant Lefty-B (R&D Systems) (protein, UniProt O75610 77-366, looked up)
Left-right determination …: RFSQSFREVAGRFLALEASTHLLVFGMEQRLPPNSELVQAVLRLFQEPVPKAALHRHGRLSPRSARARVTVEWLRVRDDGSNRTSLIDSRLVSVHESGWKAFDVTEAVNFWQQLSRPRQPLLLQVSVQREHLGPLASGAHKLVRFASQGAPAGLGEPQLELHTLDLGDYGAQGDCDPEAPMTEGTRCCRQEMYIDLQGMKWAENWVLEPPGFLAYECVGTCRQPPEALAFKWPFLGPRQCIASETDSLPMIVSIKEGGRTRPQVVSLPNMRVQKCSCASDGALVPRRLQP
In the case of B1, in [2] (C8161 cells), the “dose needed to inhibit Nodal protein relative to hESC counterpart” value is on record as “higher doses”. Further, the Nodal expression entry in [2] (C8161 cells exposed 48 hrs to 0-1000 ng/mL) is given as “reduces”.

B2: recombinant Nodal: recombinant Nodal (R&D Systems) (protein, UniProt Q96S42 238-347, looked up)
Nodal homolog: HHLPDRSQLCRKVKFQVDFNLIGWGSWIIYPKQYNAYRCEGECPNPVGEEFHPTNHAYIQSLLKRYQPHRVPSTCCAPVKTKPLSMLYVDNGRVLLDHHKDMIVEECGCL
With B2, the “rescue of inhibition of in vitro clonogenicity” value in data set [8] (C8161 cells exposed to H9 CMTX) is listed as “partially rescued”; in data set [8] (C8161 cells exposed to H9 Lefty-containing matrix) it was “completely rescued”; in data set [9] (MDA-MB-231 cells exposed to H9 CMTX) it was “partially rescued”; in data set [9] (MDA-MB-231 cells exposed to H9 Lefty-containing matrix), “completely rescued”. For the same molecule, in data set [8] (C8161 cells treated with MONodal), the “rescue of reduced colony formation” value is given as “rescued”. Besides, the colony formation entry in [10] is “did not induce colony formation”.
